What was measured:
[1] = test system: Human immunodeficiency virus; experiment: Inhibition of HIV gp41 hexamer bundle formation at 50 uM after 30 mins by size exclusion chromatography assay
[2] = Inhibition of HIV gp41 hexamer bundle formation after 30 mins by size exclusion chromatography assay; set-up: species or system Human immunodeficiency virus
[3] = Inhibition of HIV gp41 hexamer bundle formation after 30 mins by SEC-HPLC assay; set-up: species or system Human immunodeficiency virus
[4] = Inhibition of HIV gp41 hexamer bundle formation by ELISA; set-up: species or system Human immunodeficiency virus
[5] = test system: Human immunodeficiency virus; experiment: Inhibition of HIV gp41 six-helix bundle formation at 25 uM by FRET-based assay relative to C18Aib
[6] = test system: Human immunodeficiency virus; experiment: Inhibition of HIV gp41 six-helix bundle formation at 25 uM by FRET-based assay relative to ADS--J1

Structure (SMILES) | inhibition [1] | IC50 ([2]; read-out: IC50) | IC50 [3] | IC50 [4] | inhibition [5] | inhibition [6] | IC50 [2]
O=S(=O)(c1ccccc1)n1ccc2c(CCOc3cccc(-c4cccc(-c5nnn[nH]5)c4)c3)cccc21 | 100% | 32.9 µM |  |  |  |  | 
O=C(O)c1ccc(-c2c3nc(c(-c4ccc(C(=O)O)cc4)c4ccc([nH]4)c(-c4ccc(C(=O)O)cc4)c4ccc([nH]4)c(-c4ccc(C(=O)O)cc4)c4nc2C=C4)C=C3)cc1 |  |  | 0.9 µM | 1 µM |  |  | 
COC(=O)c1ccc(CCOc2cccc(-c3cccc(-c4nn[nH]n4)c3)c2)c2ccccc12 | 95% | 31 µM |  |  | 75% | 67% | 
CC(C)(C)OC(=O)n1ccc2c(CCOc3cccc(-c4cccc(-c5nnn[nH]5)c4)c3)cccc21 | 100% |  |  |  |  |  | Not Active
